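Protocol summary: plate cells (96-well), add compound at 5 concentrations, incubate 48 h, interpolate endpoints linearly. GI50 marks 50% less growth.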 Active and inactive are the calls of the source. No stated cut-off is given here; in the data, active = GI50 up to about 1.1 µM and inactive = higher.
Assays:
Experiment in all cases: NCI tumour cell line growth inhibition, 48 h
CCRF-CEM = tested on: CCRF-CEM
KM12 = tested on: KM12
NCI/ADR-RES = tested on: NCI/ADR-RES
NCI-H226 = tested on: NCI-H226
Malme-3M = tested on: Malme-3M
A549 = tested on: A549
MDA-MB-435 = tested on: MDA-MB-435
IGROV-1 = tested on: IGROV-1
LOX IMVI = tested on: LOX IMVI
OVCAR-3 = tested on: OVCAR-3
NCI-H23 = tested on: NCI-H23
U-251 = tested on: U-251
TK-10 = tested on: TK-10
SF-539 = tested on: SF-539
HL-60 = tested on: HL-60
SR = tested on: SR
HCT-15 = tested on: HCT-15
OVCAR-8 = tested on: OVCAR-8
SNB-75 = tested on: SNB-75
MCF7 = tested on: MCF7

SMILES	GI50 (CCRF-CEM)	GI50 (KM12)	GI50 (NCI/ADR-RES)	GI50 (NCI-H226)	GI50 (Malme-3M)	GI50 (A549)	GI50 (MDA-MB-435)	GI50 (IGROV-1)	GI50 (LOX IMVI)	GI50 (OVCAR-3)	GI50 (NCI-H23)	GI50 (U-251)	GI50 (TK-10)	GI50 (SF-539)	GI50 (HL-60)	GI50 (SR)	GI50 (HCT-15) [µM]	GI50 (OVCAR-8)	GI50 (SNB-75)	GI50 (MCF7)
CC(=O)/C=C1\Nc2ccccc2N\C1=C/C(C)=O	17.2 µM (inactive)	24 µM (inactive)	29 µM (inactive)	21.4 µM (inactive)	23 µM (inactive)	21.5 µM (inactive)	26.4 µM (inactive)	18.8 µM (inactive)	24.5 µM (inactive)	17.5 µM (inactive)	31.2 µM (inactive)	23.8 µM (inactive)	19.4 µM (inactive)	30.3 µM (inactive)	23.9 µM (inactive)	25.1 µM (inactive)	24.3	24.7 µM (inactive)	26.9 µM (inactive)	–
Clc1ccc(Cl)c2[s+]snc12	50.8 µM (inactive)	> 67.5 µM (inactive)	–	> 100 µM (inactive)	> 49.5 µM (inactive)	> 100 µM (inactive)	–	> 100 µM (inactive)	31 µM (inactive)	> 63.5 µM (inactive)	> 100 µM (inactive)	38.6 µM (inactive)	> 100 µM (inactive)	46 µM (inactive)	50.7 µM (inactive)	> 100 µM (inactive)	29.4	40.3 µM (inactive)	41.2 µM (inactive)	–
Cc1ccsc1/C=N/NC1=NCCN1	> 100 µM (inactive)	> 100 µM (inactive)	> 100 µM (inactive)	> 100 µM (inactive)	> 100 µM (inactive)	> 100 µM (inactive)	> 100 µM (inactive)	> 100 µM (inactive)	> 100 µM (inactive)	> 100 µM (inactive)	> 100 µM (inactive)	> 100 µM (inactive)	> 100 µM (inactive)	–	–	–	> 100	> 100 µM (inactive)	> 100 µM (inactive)	> 100 µM (inactive)
CCOC(=O)NC(=O)c1cn(CCN(CCO)C(=O)NCCCCCCNC(=O)N(CCO)CCn2cc(C(=O)NC(=O)OCC)c(=O)[nH]c2=O)c(=O)[nH]c1=O	> 100 µM (inactive)	> 100 µM (inactive)	> 100 µM (inactive)	> 100 µM (inactive)	> 100 µM (inactive)	> 100 µM (inactive)	–	> 100 µM (inactive)	> 100 µM (inactive)	> 100 µM (inactive)	> 100 µM (inactive)	> 100 µM (inactive)	–	> 100 µM (inactive)	> 100 µM (inactive)	–	> 100	> 100 µM (inactive)	> 100 µM (inactive)	> 100 µM (inactive)
Cc1cc(C)nc(NS(=O)(=O)c2ccc(NC(=O)COC(=O)c3cccc4c(=O)c5ccccc5[nH]c34)cc2)n1	34.3 µM (inactive)	19.3 µM (inactive)	–	53.3 µM (inactive)	26.7 µM (inactive)	> 100 µM (inactive)	–	43.5 µM (inactive)	20.5 µM (inactive)	23.6 µM (inactive)	29.7 µM (inactive)	20 µM (inactive)	76.4 µM (inactive)	19.5 µM (inactive)	26.9 µM (inactive)	28.6 µM (inactive)	> 100	32.1 µM (inactive)	31 µM (inactive)	–
CCCCc1ccc(Nc2cc(=O)n(C)c(=O)[nH]2)cc1	–	49.4 µM (inactive)	57.4 µM (inactive)	> 100 µM (inactive)	> 100 µM (inactive)	> 100 µM (inactive)	> 100 µM (inactive)	> 100 µM (inactive)	39.8 µM (inactive)	> 100 µM (inactive)	> 100 µM (inactive)	54.3 µM (inactive)	> 100 µM (inactive)	84.3 µM (inactive)	–	–	93.1	57 µM (inactive)	> 100 µM (inactive)	22.9 µM (inactive)
CCCCNC(=O)Cn1c2ccc(Br)cc2c2nc3ccccc3nc21	> 100 µM (inactive)	> 100 µM (inactive)	42.2 µM (inactive)	12.3 µM (inactive)	–	> 100 µM (inactive)	> 100 µM (inactive)	> 100 µM (inactive)	> 100 µM (inactive)	> 100 µM (inactive)	> 100 µM (inactive)	> 100 µM (inactive)	> 100 µM (inactive)	–	–	0.589 µM (active)	–	33.3 µM (inactive)	51.9 µM (inactive)	–
COc1ccc(C(=O)Cc2ccc(Br)cc2)cc1OC	> 100 µM (inactive)	–	–	> 100 µM (inactive)	> 100 µM (inactive)	> 100 µM (inactive)	–	> 100 µM (inactive)	> 100 µM (inactive)	> 100 µM (inactive)	> 100 µM (inactive)	> 100 µM (inactive)	56 µM (inactive)	> 100 µM (inactive)	> 100 µM (inactive)	> 100 µM (inactive)	> 100	> 100 µM (inactive)	27.5 µM (inactive)	–
CC(=O)CC(=O)ON(C)C(=O)Cc1ccccc1	> 100 µM (inactive)	> 100 µM (inactive)	–	> 100 µM (inactive)	> 100 µM (inactive)	> 100 µM (inactive)	–	> 100 µM (inactive)	> 100 µM (inactive)	> 100 µM (inactive)	> 100 µM (inactive)	> 100 µM (inactive)	> 100 µM (inactive)	> 100 µM (inactive)	> 100 µM (inactive)	> 100 µM (inactive)	> 100	> 100 µM (inactive)	> 100 µM (inactive)	–
CC(C)(C)OC(=O)N1C(=O)C2CCCC21 (stereo not drawn)	> 100 µM (inactive)	> 100 µM (inactive)	> 100 µM (inactive)	> 100 µM (inactive)	–	> 100 µM (inactive)	> 100 µM (inactive)	> 100 µM (inactive)	> 100 µM (inactive)	> 100 µM (inactive)	> 100 µM (inactive)	> 100 µM (inactive)	–	–	> 100 µM (inactive)	> 100 µM (inactive)	> 100	> 100 µM (inactive)	> 100 µM (inactive)	–
CC1CN=C(N(Cc2ccc(F)cc2)C(=O)Nc2ccc(Cl)cc2)S1 (stereo not drawn)	28 µM (inactive)	14 µM (inactive)	12.5 µM (inactive)	–	34.8 µM (inactive)	21.4 µM (inactive)	–	18.9 µM (inactive)	16.1 µM (inactive)	20.2 µM (inactive)	26.9 µM (inactive)	32.4 µM (inactive)	21.8 µM (inactive)	30.5 µM (inactive)	17.5 µM (inactive)	26.5 µM (inactive)	6.22	30.1 µM (inactive)	18.2 µM (inactive)	28.8 µM (inactive)
CC(C)NC(=O)OCc1c2c(n(C)c1COC(=O)NC(C)C)-c1ccccc1CC2	2.07 µM (inactive)	15.5 µM (inactive)	15 µM (inactive)	11.9 µM (inactive)	5.51 µM (inactive)	23.7 µM (inactive)	–	14 µM (inactive)	9.31 µM (inactive)	14.2 µM (inactive)	6.71 µM (inactive)	9.18 µM (inactive)	–	15.4 µM (inactive)	2.55 µM (inactive)	–	14	12 µM (inactive)	14.1 µM (inactive)	10.5 µM (inactive)
COc1cc(C2(O)c3ccccc3C3=NCCN32)cc(OC)c1OC (stereo not drawn)	> 100 µM (inactive)	> 100 µM (inactive)	> 100 µM (inactive)	73.3 µM (inactive)	–	> 100 µM (inactive)	> 100 µM (inactive)	–	> 100 µM (inactive)	> 100 µM (inactive)	> 100 µM (inactive)	> 100 µM (inactive)	> 100 µM (inactive)	–	> 100 µM (inactive)	64.3 µM (inactive)	> 100	–	> 100 µM (inactive)	–
N#C/N=C(/N)NCc1ccccc1	> 100 µM (inactive)	> 100 µM (inactive)	–	> 100 µM (inactive)	> 100 µM (inactive)	> 100 µM (inactive)	–	> 100 µM (inactive)	> 100 µM (inactive)	> 100 µM (inactive)	> 100 µM (inactive)	> 100 µM (inactive)	> 100 µM (inactive)	> 100 µM (inactive)	> 100 µM (inactive)	> 100 µM (inactive)	> 100	> 100 µM (inactive)	> 100 µM (inactive)	–
CC(C)(Oc1ccc(C2C[C@H]2Cl)cc1)C(=O)O (stereo partly drawn)	–	> 100 µM (inactive)	–	–	–	> 100 µM (inactive)	> 100 µM (inactive)	> 100 µM (inactive)	> 100 µM (inactive)	> 100 µM (inactive)	–	> 100 µM (inactive)	> 100 µM (inactive)	> 100 µM (inactive)	> 100 µM (inactive)	> 100 µM (inactive)	> 100	–	> 100 µM (inactive)	> 100 µM (inactive)
CC(C)CC1C(=O)OC(C)(C)OC1=O	> 100 µM (inactive)	> 100 µM (inactive)	> 100 µM (inactive)	> 100 µM (inactive)	–	> 100 µM (inactive)	> 100 µM (inactive)	> 100 µM (inactive)	> 100 µM (inactive)	> 100 µM (inactive)	> 100 µM (inactive)	> 100 µM (inactive)	> 100 µM (inactive)	> 100 µM (inactive)	–	–	> 100	> 100 µM (inactive)	> 100 µM (inactive)	> 100 µM (inactive)
N#COc1ccc(Oc2ccc(OC#N)cc2)cc1	22.5 µM (inactive)	> 100 µM (inactive)	–	> 100 µM (inactive)	> 100 µM (inactive)	> 100 µM (inactive)	–	> 100 µM (inactive)	19.3 µM (inactive)	> 100 µM (inactive)	70.5 µM (inactive)	85.7 µM (inactive)	> 100 µM (inactive)	43.5 µM (inactive)	46.3 µM (inactive)	24.1 µM (inactive)	42.8	> 100 µM (inactive)	93.5 µM (inactive)	–

Reference: ChEMBL document CHEMBL1201862, “PubChem BioAssay data set” (2004)
